The target of test [1] is T1, TDG (Homo sapiens, UniProt Q13569). The test is described as follows: Inhibition of TDG mismatch repair activity (fluorescent G·U double-stranded DNA probe T1-T2). In kind it is biochemical. The conditions noted are these: TDG 100 nM/L, preincubated with compound 37° C. 30 minutes; probe 30 nM; read-out: Inhibitory activity on TDG mismatch repair IC50. The method in brief:
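TDG (100 nM/L) preincubated with compound 30 min at 37 °C in 20 mM HEPES pH7.5, 100 mM NaCl, 0.2 mM EDTA, 2.5 mM MgCl2, then 30 nM FAM/biotin G·U probe for 30 min at 25 °C. After streptavidin bead capture and 200 mM NaOH, supernatant fluorescence read at 485/520 nm; IC50 determined.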

In test [2] the test system is Lung cancer cell line Calu-1. The test is described as follows: Inhibition of the growth of Calu-1 cells (CellTiter-Glo, 72 hours). Type of test: cell-based. To be noted: Homo sapiens, 72 hours of culturing, read-out: Inhibitory activity on alu-1 cell growth IC50. In a few lines: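 Calu-1 cells in McCoy's 5A with 10% FBS, seeded at 500 cells/well and dosed the next day at 0.1% DMSO final. Viability was read by CellTiter-Glo 2.0 luminescence after 72 h at 37° C. Activity class: ++ for IC50 ≤5 μM, + for IC50 >5 μM.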

The target in test [3] is T1, TDG. The test is described as follows: TDG inhibitory activity of compounds in cells (caC-cmv-firefly luciferase reporter, HEK 293T TDG KO cells transfected with pCDNA4-TDG). In kind it is cell-based. The conditions noted are these: read-out: Inhibition rate on TDG activity. In a few lines:
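TDG-knockout HEK 293T cells co-transfected with an in vitro Tet1-oxidised, 5caC-modified CMV-firefly reporter, a Renilla control and a TDG (or empty myc) plasmid, then treated with compounds for 72 h at 37°C. Firefly/Renilla ratio gives relative TDG activity inhibition, with activity bins set at 10 μM.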

Molecules are shown by their SMILES. A value given as a limit tells only on which side of the number the result lay.

T1 sequence (Q13569 whole entry): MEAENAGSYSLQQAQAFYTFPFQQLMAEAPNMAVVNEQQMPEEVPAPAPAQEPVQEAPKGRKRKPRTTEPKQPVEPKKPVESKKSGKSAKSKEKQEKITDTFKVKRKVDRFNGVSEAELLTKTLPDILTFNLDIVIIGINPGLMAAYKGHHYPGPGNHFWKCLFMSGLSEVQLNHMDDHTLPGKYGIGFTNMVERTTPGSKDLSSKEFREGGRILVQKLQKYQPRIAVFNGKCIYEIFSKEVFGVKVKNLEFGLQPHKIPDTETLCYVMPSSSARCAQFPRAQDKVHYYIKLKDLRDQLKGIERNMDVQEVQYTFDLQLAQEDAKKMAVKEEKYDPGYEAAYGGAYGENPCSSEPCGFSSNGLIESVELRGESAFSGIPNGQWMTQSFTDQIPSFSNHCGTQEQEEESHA

As for `O=C(CCN1CCC(c2ccc(C(F)(F)F)cc2)C1)c1ccc2c(c1)OCCO2` (stereo not drawn) [Compound 45, 1-(2,3-dihydrobenzo[b][1,4]dioxin-6-yl)-3-(3-(4-(trifluoromethyl)phenyl)pyrrolidine-1-yl)propan-1-one], the IC50 (commonly the concentration that gives 50% inhibition) on TDG [1] is > 5 µM; in test [2], ≤ 5 µM. The inhibition (as a rule, the relative decrease from the control value, in per cent) at 10 µM on TDG [3] was < 25%.
The matching figures for `O=C(CCN1CCC(c2ccc([N+](=O)[O-])cc2)C1)c1ccc2c(c1)OCCO2` (stereo not drawn) [Compound 46, 1-(2,3-dihydrobenzo[b][1,4]dioxin-6-yl)-3-(3-(4-nitrophenyl)pyrrolidin-1-yl)propan-1-one]: ≤ 5 µM, ≤ 5 µM and < 25%.
Regarding `O=C(CCN1CCC(c2ccc(Br)cc2)C1)c1ccc2c(c1)OCCO2` (stereo not drawn) [Compound 47, 3-(3-(4-bromophenyl)pyrrolidin-1-yl)-1-(2,3-dihydrobenzo[b][1,4]dioxin-6-yl)propan-1-one], the IC50 (on TDG [1]; in test [2]) was ≤ 5 µM throughout. At TDG [3], the inhibition at 10 µM is < 25%.
For `O=C(CCN1CCC(c2ccc(Cl)cc2)C1)c1ccc2c(c1)OCCO2` (stereo not drawn) [Compound 49, 3-(3-(4-chlorophenyl)pyrrolidin-1-yl)-1-(2,3-dihydrobenzo[b][1,4]dioxin-6-yl)propan-1-one], the IC50 (at TDG [1]; in test [2]) was ≤ 5 µM each time. For the same molecule, the inhibition at 10 µM at TDG [3] was < 25%.
Regarding `N#Cc1ccc(C2CCN(CCC(=O)c3ccc4c(c3)OCCO4)C2)cc1` (stereo not drawn) [Compound 50, 4-(1-(3-(2,3-dihydrobenzo[b][1,4]dioxin-6-yl)-3-oxopropyl)pyrrolidin-3-yl)benzonitrile], the IC50 (on TDG [1]; in test [2]) was ≤ 5 µM throughout. Besides, at TDG [3], the inhibition at 10 µM is > 25%.
With `O=C(CCN1CCC(c2ccc(F)cc2O)C1)c1ccc2c(c1)OCCO2` (stereo not drawn) [Compound 51, 1-(2,3-dihydrobenzo[b][1,4]dioxin-6-yl)-3-(3-(4-fluoro-2-hydroxyphenyl)pyrrolidine-1-yl)propan-1-one], the IC50 (on TDG [1]; in test [2]) was > 5 µM each time. In addition, at TDG [3], the inhibition at 10 µM is < 25%.
As to `O=C(CCN1CCC(c2ccc(F)c(O)c2)C1)c1ccc2c(c1)OCCO2` (stereo not drawn) [Compound 52, 1-(2,3-dihydrobenzo[b][1,4]dioxin-6-yl)-3-(3-(4-fluoro-3-hydroxyphenyl)pyrrolidine-1-yl)propan-1-one], the IC50 (at TDG [1]; in test [2]) was ≤ 5 µM each time. Moreover, the inhibition at 10 µM at TDG [3] is < 25%.
As for `O=C(CCN1CCc2ccccc2C(O)(c2ccc(F)cc2)C1)c1ccc2c(c1)OCCO2` (stereo not drawn) [Compound 53, 1-(2,3-dihydrobenzo[b][1,4]dioxin-6-yl)-3-(1-(4-fluorophenyl)-1-hydroxy-1,2,4,5-tetrahydro-3H-benzo[d]azepine-3-yl)propan-1-one], the IC50 (at TDG [1]; in test [2]) was ≤ 5 µM in each case. On TDG [3], the inhibition at 10 µM was < 25%.
On to `O=C(CCN1CCc2ccccc2C(O)(c2ccc(F)cc2)C1)c1ccc2c(c1)C(=O)CCO2` (stereo not drawn) [Compound 54, 6-(3-(1-(4-fluorophenyl)-1-hydroxy-1,2,4,5-tetrahydro-3H-benzo[d]azepine-3-yl)propionyl)chroman-4-one], for which the IC50 (on TDG [1]; in test [2]) was ≤ 5 µM throughout. In addition, the inhibition at 10 µM at TDG [3] is < 25%.

(Values after patent publication US20220213070A1, “COMPOUNDS INHIBITING TDG ACTIVITY” (EPITAS BIOSCIENCES (SHANGHAI) CO., LTD., priority 2019, published 2022).)
